For assay [1], the target named is recombinant poly(ADP-ribose) polymerase 2 (PARP2). Description: PARP2 chemiluminescent assay. Conditions: inhibition of PARP2 enzyme activity, chemiluminescence. Type of assay: biochemical.
For another assay, the system named is MDA-MB-436 cells. Nature of the assay: Growth inhibition assay against BRCA mutant human breast cancer MDA-MB-436 cell line (CCK-8). Conditions: proliferation of MDA-MB-436 cells, 7 days. It is filed as cell-based.
The target of assay [2] is recombinant poly(ADP-ribose) polymerase 1 (PARP1) (Homo sapiens (Human), UniProt P09874).

Consider 24 compounds from patent US20250215013A1, “SUBSTITUTED TRICYCLIC COMPOUNDS AS PARP INHIBITORS AND THE USE THEREOF” (IMPACT THERAPEUTICS (SHANGHAI), INC., priority 2022, published 2025).

Chain of recombinant poly(ADP-ribose) polymerase 1 (PARP1) (P09874 whole entry): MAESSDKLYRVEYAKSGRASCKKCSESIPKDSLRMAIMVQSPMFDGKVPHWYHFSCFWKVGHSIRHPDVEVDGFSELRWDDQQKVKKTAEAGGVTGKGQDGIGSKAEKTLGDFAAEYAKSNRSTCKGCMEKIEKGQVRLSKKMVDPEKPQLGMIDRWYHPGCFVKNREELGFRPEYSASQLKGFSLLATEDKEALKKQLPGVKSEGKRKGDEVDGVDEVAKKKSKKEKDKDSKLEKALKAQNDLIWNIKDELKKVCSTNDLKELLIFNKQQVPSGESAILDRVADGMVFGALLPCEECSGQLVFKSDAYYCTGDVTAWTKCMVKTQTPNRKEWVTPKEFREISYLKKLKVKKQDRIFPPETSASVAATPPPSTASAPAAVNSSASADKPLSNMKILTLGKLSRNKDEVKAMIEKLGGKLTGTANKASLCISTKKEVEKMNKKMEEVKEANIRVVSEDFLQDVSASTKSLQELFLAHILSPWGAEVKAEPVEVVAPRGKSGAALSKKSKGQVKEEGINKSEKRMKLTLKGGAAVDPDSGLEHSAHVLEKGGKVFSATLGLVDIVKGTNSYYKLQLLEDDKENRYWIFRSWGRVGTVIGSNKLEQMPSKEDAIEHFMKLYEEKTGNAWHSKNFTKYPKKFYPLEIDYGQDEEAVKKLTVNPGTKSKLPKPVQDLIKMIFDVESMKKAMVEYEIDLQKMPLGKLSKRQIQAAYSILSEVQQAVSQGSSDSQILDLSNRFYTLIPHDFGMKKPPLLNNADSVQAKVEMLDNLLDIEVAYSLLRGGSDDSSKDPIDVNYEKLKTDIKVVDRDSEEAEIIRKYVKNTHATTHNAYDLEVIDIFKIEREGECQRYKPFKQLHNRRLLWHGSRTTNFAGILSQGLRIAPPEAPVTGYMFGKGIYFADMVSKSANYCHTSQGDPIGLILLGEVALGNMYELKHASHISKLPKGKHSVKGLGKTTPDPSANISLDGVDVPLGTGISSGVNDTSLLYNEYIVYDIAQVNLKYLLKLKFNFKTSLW

On to `CNC(=O)c1ccc(N2CCN(Cc3ccc4c(c3)[nH]c(=O)c3ncoc34)CC2)c(C)n1` [Example 12, 7-((4-(2-methyl-6-(methylcarbamoyl)pyridin-3-yl)piperazin-1-yl)methyl)oxazolo[4,5-c]quinolin-4(5H)-one], for which the IC50 came out at 6370 nM in assay [1]; 1.15 nM in the assay with MDA-MB-436 cells (Homo sapiens, MDA-MB-436, […]); 1.11 nM in assay [2].
In the case of `CNC(=O)c1ccc(N2CCN(Cc3ccc4c(c3)[nH]c(=O)c3ocnc34)CC2)c(C)n1` [Example 14, 7-((4-(2-methyl-6-(methylcarbamoyl)pyridin-3-yl)piperazin-1-yl)methyl)oxazolo[5,4-c]quinolin-4(5H)-one], the IC50 in assay [1] was > 10000 nM; with MDA-MB-436 cells (Homo sapiens, MDA-MB-436, […]), 21.3 nM; in assay [2], 1.86 nM.
`CNC(=O)c1ccc(N2CCN(Cc3ccc4c(c3)[nH]c(=O)c3nc[nH]c34)CC2)c(C)n1` [Example 25, 7-((4-(2-methyl-6-(methylcarbamoyl)pyridin-3-yl)piperazin-1-yl)methyl)-1,5-dihydro-4H-imidazo[4,5-c]quinolin-4-one]: the IC50 in assay [1] is 2490 nM; in the assay on MDA-MB-436 cells (Homo sapiens, MDA-MB-436, […]) it was 61.8 nM; in assay [2] it was 3.39 nM.
As to `CNC(=O)c1ccc(N2CCN(Cc3ccc4c(c3)[nH]c(=O)c3ncn(C)c34)CC2)c(C)n1` [Example 26, 7-((4-(2-methyl-6-(methylcarbamoyl)pyridin-3-yl)piperazin-1-yl)methyl)-1-methyl-1,5-dihydro-4H-imidazo[4,5-c]quinolin-4-one], the IC50 in assay [1] is 2420 nM; with MDA-MB-436 cells (Homo sapiens, MDA-MB-436, […]), > 100 nM; in assay [2], 4.43 nM.
With `CNC(=O)c1ccc(N2CCN(Cc3ccc4c(c3)[nH]c(=O)c3c4ncn3C)CC2)c(C)n1` [Example 28, 7-((4-(2-methyl-6-(methylcarbamoyl)pyridin-3-yl)piperazin-1-yl)methyl)-3-methyl-3,5-dihydro-4H-imidazo[4,5-c]quinolin-4-one], the IC50 in assay [1] stood at 2060 nM; with MDA-MB-436 cells (Homo sapiens, MDA-MB-436, […]) it was 19.4 nM; in assay [2] it was 2.42 nM.
On to `CNC(=O)c1ccc(N2CCN(Cc3ccc4c(c3)[nH]c(=O)c3oncc34)CC2)c(C)n1` [Example 30, 7-((4-(2-methyl-6-(methylcarbamoyl)pyridin-3-yl)piperazin-1-yl)methyl)isoxazolo[5,4-c]quinolin-4(5H)-one], for which the IC50 in assay [1] was > 10000 nM; in the assay on MDA-MB-436 cells (Homo sapiens, MDA-MB-436, […]), > 100 nM; in assay [2], 138 nM.
On to `CNC(=O)c1ccc(N2CCN(Cc3ccc4c(c3)[nH]c(=O)c3c[nH]cc34)CC2)c(C)n1` [Example 34, 7-((4-(2-methyl-6-(methylcarbamoyl)pyridin-3-yl)piperazin-1-yl)methyl)-2,5-dihydro-4H-pyrrolo[3,4-c]quinolin-4-one], for which the IC50 in assay [1] amounted to 709 nM; in the assay on MDA-MB-436 cells (Homo sapiens, MDA-MB-436, […]), 5.06 nM; in assay [2], 2.52 nM.
Take `CNC(=O)c1ccc(N2CCN(Cc3ccc4c(c3)[nH]c(=O)c3cn(C)cc34)CC2)c(C)n1` [Example 35, 7-((4-(2-methyl-6-(methylcarbamoyl)pyridin-3-yl)piperazin-1-yl)methyl)-2-methyl-2,5-dihydro-4H-pyrrolo[3,4-c]quinolin-4-one]: the IC50 stood at 584 nM in assay [1]; 8.24 nM in the assay on MDA-MB-436 cells (Homo sapiens, MDA-MB-436, […]); 2.92 nM in assay [2].
As for `CNC(=O)c1ccc(N2CCN(Cc3ccc4c([nH]c(=O)c5cn[nH]c54)c3F)CC2)c(C)n1` [Example 45, 7-((4-(2-methyl-6-(methylcarbamoyl)pyridin-3-yl)piperazin-1-yl)methyl)-6-fluoro-1,5-dihydro-4H-pyrazolo[4,3-c]quinolin-4-one], the IC50 turned out to be 278 nM in assay [1]; 9.02 nM in the assay on MDA-MB-436 cells (Homo sapiens, MDA-MB-436, […]); 0.64 nM in assay [2].
Consider `CNC(=O)c1ccc(N2CCN(Cc3ccc4c(c3)[nH]c(=O)c3c(C)noc34)CC2)c(C)n1` [Example 47, 7-((4-(2-methyl-6-(methylcarbamoyl)pyridin-3-yl)piperazin-1-yl)methyl)-3-methylisoxazolo[4,5-c]quinolin-4(5H)-one], for which the IC50 worked out at 504 nM in assay [1]; 12.2 nM with MDA-MB-436 cells (Homo sapiens, MDA-MB-436, […]); 0.86 nM in assay [2].
In the case of `CNC(=O)c1ccc(N2CCN(Cc3ccc4c(c3)[nH]c(=O)c3c(F)c(C)nn34)CC2)c(C)n1` [Example 51, 7-((4-(2-methyl-6-(methylcarbamoyl)pyridin-3-yl)piperazin-1-yl)methyl)-3-fluoro-2-methylpyrazolo[1,5-a]quinoxalin-4(5H)-one], the IC50 in assay [1] was determined as 30.6 nM; in the assay with MDA-MB-436 cells (Homo sapiens, MDA-MB-436, […]), 8.45 nM; in assay [2] it was 0.9 nM.
For `CNC(=O)c1ccc(N2CCN(Cc3cc(F)c4c(c3)[nH]c(=O)c3cncn34)CC2)c(F)n1` [Example 53, 7-((4-(2-fluoro-6-(methylcarbamoyl)pyridin-3-yl)piperazin-1-yl)methyl)-9-fluoroimidazo[1,5-a]quinoxalin-4(5H)-one], the IC50 in assay [1] was found to be 469 nM; in the assay on MDA-MB-436 cells (Homo sapiens, MDA-MB-436, […]), 2.01 nM; in assay [2], 0.25 nM.
In the case of `CNC(=O)c1ccc(N2CCN(Cc3cc(F)c4c(c3)[nH]c(=O)c3cncn34)CC2)c(Cl)n1` [Example 54, 7-((4-(2-chloro-6-(methylcarbamoyl)pyridin-3-yl)piperazin-1-yl)methyl)-9-fluoroimidazo[1,5-a]quinoxalin-4(5H)-one], the IC50 turned out to be 648 nM in assay [1]; 5.85 nM in the assay with MDA-MB-436 cells (Homo sapiens, MDA-MB-436, […]); 0.52 nM in assay [2].
Consider `CNC(=O)c1ccc(N2CCN(Cc3ccc4c([nH]c(=O)c5cncn54)c3F)CC2)c(F)n1` [Example 55, 7-((4-(2-fluoro-6-(methylcarbamoyl)pyridin-3-yl)piperazin-1-yl)methyl)-6-fluoroimidazo[1,5-a]quinoxalin-4(5H)-one], for which the IC50 in assay [1] was found to be 776 nM; with MDA-MB-436 cells (Homo sapiens, MDA-MB-436, […]), 14 nM; in assay [2], 0.47 nM.
Consider `CNC(=O)c1ccc(N2CCN(Cc3ccc4c([nH]c(=O)c5cncn54)c3F)CC2)c(Cl)n1` [Example 56, 7-((4-(2-chloro-6-(methylcarbamoyl)pyridin-3-yl)piperazin-1-yl)methyl)-6-fluoroimidazo[1,5-a]quinoxalin-4(5H)-one], for which the IC50 in assay [1] is 1570 nM; in the assay on MDA-MB-436 cells (Homo sapiens, MDA-MB-436, […]) it was 4.08 nM; in assay [2], 0.68 nM.
In the case of `CNC(=O)c1ccc(N2CCN(Cc3ccc4c([nH]c(=O)n5ccnc45)c3F)CC2)c(F)n1` [Example 61, 8-((4-(2-fluoro-6-(methylcarbamoyl)pyridin-3-yl)piperazin-1-yl)methyl)-7-fluoroimidazo[1,2-c]quinazolin-5(6H)-one], the IC50 is 7260 nM in assay [1]; 17.4 nM with MDA-MB-436 cells (Homo sapiens, MDA-MB-436, […]); 2.23 nM in assay [2].
Turning to `CCNC(=O)c1ccc(N2CCN(Cc3ccc4c([nH]c(=O)n5ccnc45)c3F)CC2)c(F)n1` [Example 62, 8-((4-(2-fluoro-6-(ethylcarbamoyl)pyridin-3-yl)piperazin-1-yl)methyl)-7-fluoroimidazo[1,2-c]quinazolin-5(6H)-one], the IC50 in assay [1] was > 10000 nM; with MDA-MB-436 cells (Homo sapiens, MDA-MB-436, […]), 46.7 nM; in assay [2] it was 3.49 nM.
Regarding `CCNC(=O)c1ccc(N2CCN(Cc3ccc4c([nH]c(=O)n5ccnc45)c3F)CC2)c(C)n1` [Example 63, 8-((4-(2-methyl-6-(ethylcarbamoyl)pyridin-3-yl)piperazin-1-yl)methyl)-7-fluoroimidazo[1,2-c]quinazolin-5(6H)-one], the IC50 was > 10000 nM in assay [1]; 53.7 nM with MDA-MB-436 cells (Homo sapiens, MDA-MB-436, […]); 3.86 nM in assay [2].
On to `O=C(NC1CC1)c1ccc(N2CCN(Cc3ccc4c([nH]c(=O)n5ccnc45)c3F)CC2)c(F)n1` [Example 64, 8-((4-(2-fluoro-6-(cyclopropylcarbamoyl)pyridin-3-yl)piperazin-1-yl)methyl)-7-fluoroimidazo[1,2-c]quinazolin-5(6H)-one], for which the IC50 in assay [1] is 5450 nM; with MDA-MB-436 cells (Homo sapiens, MDA-MB-436, […]) it was 52.6 nM; in assay [2], 2.73 nM.
Consider `Cc1nc(C(=O)NC2CC2)ccc1N1CCN(Cc2ccc3c([nH]c(=O)n4ccnc34)c2F)CC1` [Example 65, 8-((4-(2-methyl-6-(cyclopropylcarbamoyl)pyridin-3-yl)piperazin-1-yl)methyl)-7-fluoroimidazo[1,2-c]quinazolin-5(6H)-one], for which the IC50 in assay [1] is > 10000 nM; with MDA-MB-436 cells (Homo sapiens, MDA-MB-436, […]), 53.8 nM; in assay [2], 4.53 nM.
On to `CNC(=O)c1ccc(N2CCN(Cc3ccc4c(c3)[nH]c(=O)c3nn(C)cc34)CC2)c(C)n1` [Example 69, 7-((4-(2-methyl-6-(methylcarbamoyl)pyridin-3-yl)piperazin-1-yl)methyl)-2-methyl-2,5-dihydro-4H-pyrazolo[3,4-c]quinolin-4-one], for which the IC50 in assay [1] is 5780 nM; with MDA-MB-436 cells (Homo sapiens, MDA-MB-436, […]), 4.66 nM; in assay [2], 0.77 nM.
In the case of `CNC(=O)c1ccc(N2CCN(Cc3ccc4c(c3)[nH]c(=O)c3c4cnn3C)CC2)c(C)n1` [Example 71, 7-((4-(2-methyl-6-(methylcarbamoyl)pyridin-3-yl)piperazin-1-yl)methyl)-3-methyl-3,5-dihydro-4H-pyrazolo[3,4-c]quinolin-4-one], the IC50 stood at 636 nM in assay [1]; 11 nM with MDA-MB-436 cells (Homo sapiens, MDA-MB-436, […]); 3.3 nM in assay [2].
With `CNC(=O)c1ccc(N2CCN(Cc3ccc4c([nH]c(=O)n5nccc45)c3F)CC2)c(C)n1` [Example 72, 8-((4-(2-methyl-6-(methylcarbamoyl)pyridin-3-yl)piperazin-1-yl)methyl)-7-fluoropyrazolo[1,5-c]quinazolin-5(6H)-one], the IC50 in assay [1] amounted to 1830 nM; in the assay with MDA-MB-436 cells it was 29 nM; in assay [2], 1.08 nM.
As to `CNC(=O)c1ccc(N2CCN(Cc3ccc4c5c(c(=O)[nH]c4c3)CNC5)CC2)c(C)n1` [Example 74, 7-((4-(6-methylcarbamoyl-2-methylpyridin-3-yl)piperazin-1-yl)methyl)-1,2,3,5-tetrahydro-4H-pyrrolo[3,4-c]quinolin-4-one], the IC50 is 2980 nM in assay [1]; 58.2 nM with MDA-MB-436 cells (Homo sapiens, MDA-MB-436, […]); 3.31 nM in assay [2].
